From paper PMC7947296, “p-Terphenyls From Aspergillus sp. GZWMJZ-055: Identification, Derivation, Antioxidant and α-Glycosidase Inhibitory Activities” (Frontiers in Microbiology, 2021)
Values joined by “and” are separate entries in the source; they are usually repeats but may differ in a detail not shown here. Equal entries are not always repeated.

Tests used:
[1] = DPPH radical-scavenging assay; settings: DPPH 0.15 mM in MeOH, 30-min incubation in the dark at rt, absorbance 517 nm
Procedure: The anti-oxidative activity of compounds was also evaluated by 2,2-diphenyl-1-picrylhydrazyl (DPPH) radical-scavenging assay ([Wang et al., 2007]). The experiment was divided into the following five groups, blank (methanol, MeOH), sample (mix compound and DPPH solution), background (pure compound solution), negative (pure DPPH solution), and positive [mix vitamin C (VC) and DPPH solution] controls. DPPH (0.15 mM), compounds (1–100 μM), and VC (1–100 μM) that was regarded as a compound sample in the following procedures all were dissolved in MeOH. Each 160 μL of MeOH was placed in negative control and blank groups, while each 160 μL of testing compounds or VC was placed in sample and background groups. Then, MeOH (each 40 μL) was, respectively, added to blank and background groups, while 40 μL of DPPH was, respectively, added to negative, positive, and sample controls. After 30-min incubation in the dark at rt, the decrease in DPPH radical concentration was monitored by measuring the absorbance at λ 517 nm with a microplate reader (Multiskan Spectrum, Thermo Scientific Varioskan LUX). The DPPH radical-scavenging rate was calculated as:
Scavenging rate (%)=[(Anegative-Ablank)-(Asample-Abackground)]/(Anegative-Ablank)×100%.

[2] = Oxygen radical absorbance capacity (ORAC) assay; settings: trolox equivalents; tested at 6.25 μM (compounds 4–7), 12.5 μM (1–3, 8–16), 25.0 μM (17–25); PBS pH 7.4, 37°C
Procedure: The anti-oxidative activity of compounds was evaluated by ORAC assay ([Huang et al., 2002]) that was carried out mainly by using 2,2′-azobis(2-amidinopropane) dihydrochloride (AAPH, 153.0 μM), fluorescein (FL, 81.6 nM), testing compounds, and trolox as a positive control, all of which were dissolved in phosphate buffer solution (PBS, 75 mM, pH 7.4). The concentrations were 6.25 μM for compounds 4–7 and trolox, 12.5 μM for compounds 1–3, 8–16 and trolox, and 25.0 μM for compounds 17–25 and trolox, respectively (Supplementary Figure 36). In short, each 25 μL of testing compounds, blank (PBS), negative (PBS) and trolox, and 150 μL of FL were added in each well and incubated at 37°C for 10 min. Each 25 μL of AAPH was then added to the testing compounds, blank and trolox groups, and 25 μL of PBS was added to the negative group. Fluorescence intensity of each well was measured one time every 1 min for 90 cycles using a Fluoroskan Ascent FL plate-reader (Thermo Scientific Varioskan LUX) at excitation of λ 485 nm and emission of λ 530 nm. The relative fluorescence intensity f was equaled to the ratio of the absolute fluorescence reading to the initial fluorescence reading, and the net area under curve (AUC) was obtained by subtracting the AUC of the blank from that of the compound. The AUC was calculated as 0.5 + f1 +… fi +… + f89 + 0.5 × f90, in which fi means the ratio of fluorescence reading at time i to the initial fluorescence reading. The final ORAC values were calculated as micromole of trolox equivalents per micromole of the compound (μmole TE/μmole) by using a regression equation between the trolox concentration and the net area under the FL decay curve. That is, the relative ORAC value = (AUCcompound – AUCblank)/(AUCtrolox – AUCblank).

[3] = biological target: α-glucosidase from Saccharomyces cerevisiae (Saccharomyces cerevisiae, UniProt P53341); experiment: biochemical;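 further: 15 min preincubation at 37 °C, then 30 min with PNPG substrate at 37 °C, inhibition computed from absorbance versus drug-free blank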
Sequence of α-glucosidase from Saccharomyces cerevisiae (P53341 whole entry): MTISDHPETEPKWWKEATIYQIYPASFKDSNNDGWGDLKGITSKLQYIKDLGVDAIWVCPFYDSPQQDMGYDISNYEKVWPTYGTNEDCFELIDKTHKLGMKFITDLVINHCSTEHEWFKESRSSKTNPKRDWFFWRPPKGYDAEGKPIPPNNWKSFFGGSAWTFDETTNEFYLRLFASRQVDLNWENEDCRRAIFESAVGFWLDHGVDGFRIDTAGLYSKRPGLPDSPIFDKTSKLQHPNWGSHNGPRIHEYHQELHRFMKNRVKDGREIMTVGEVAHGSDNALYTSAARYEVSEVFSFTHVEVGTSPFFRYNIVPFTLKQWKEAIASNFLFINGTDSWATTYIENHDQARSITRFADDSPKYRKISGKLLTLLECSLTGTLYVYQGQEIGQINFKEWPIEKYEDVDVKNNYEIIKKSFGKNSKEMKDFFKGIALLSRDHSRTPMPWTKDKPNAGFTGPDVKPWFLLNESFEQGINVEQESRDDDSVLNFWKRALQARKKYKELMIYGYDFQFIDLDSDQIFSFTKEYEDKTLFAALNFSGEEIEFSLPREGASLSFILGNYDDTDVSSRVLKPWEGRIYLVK
Procedure: After incubation for 15 min at 37°C, 20 μL of PNPG solution was added to each well of testing groups and further incubated at 37°C for 30 min. Finally, 80 μL of Na2CO3 solution was added to each well to stop the reaction and the absorbance was measured by a microplate reader (Multiskan Spectrum, Thermo Scientific Varioskan LUX) at λ 405 nm.

[4] = Cytotoxic effects on caco-2 cells by CTG assay; type: cell-based; settings: human, 72 h incubation, read-out: inhibitory rate (cytotoxicity to caco-2 cells)
Procedure: The cytotoxic effects on the coca-2 cells were evaluated by the CTG assay ([Elisia and Kitts, 2008]; [Wang et al., 2019]). Briefly, coca-2 cells were seeded in 96-well plates at a density of 2 × 10^3 cells/well and treated with the final concentration of 1.0 μM of the compounds. After 72 h incubation, 100 μL of CTG solution (Promega) was added into each well. The luminescence value was tested by using a microplate reader (BioTek Synergy H1) after staying at rt for 10 min.

SMILES	IC50 [1] [µM]	ORAC (μMole TE/μMole) [2]	IC50 [3] [µM]	inhibition at 72 h, 1 µM [4] [%]
COc1cc(-c2c(OC)cc(-c3ccccc3)c(OC)c2O)ccc1OCC=C(C)C [Compound 1, 3-O-methyl-4″-deoxyterprenin]	> 100	1.0 ± 0.04 μMole TE/μMole	> 500	
COc1cc(-c2ccc(O)cc2)c(OC)c(O)c1-c1ccccc1 [Compound 2, 4-deoxyterphenyllin]	> 100	1.2 ± 0.09 μMole TE/μMole	239 ± 5.9	
COc1cc(-c2ccccc2)c(OC)c(OC)c1-c1ccc(O)cc1 [Compound 3, 4″-deoxy-2′-methoxyterphenyllin]	> 100	2.1 ± 0.5 μMole TE/μMole	> 500	
COc1cc(-c2ccc(O)cc2)c(O)c(O)c1-c1ccc(O)cc1 [Compound 4, 5′-methoxy-[1,1′:4′,1″-terphenyl]-2′,3′,4,4″-tetraol]	1.7 ± 0.02	6.8 μMole TE/μMole and 6.8 ± 0.05 μMole TE/μMole	5.9 ± 0.6	
COc1cc(-c2ccc(O)cc2)c(OC)c(O)c1-c1ccc(O)cc1 [Compound 5, terphenyllin]	10.9 ± 0.3	6.0 μMole TE/μMole and 6.0 ± 0.09 μMole TE/μMole	2.8 ± 0.2	0.4
COc1cc(-c2ccc(O)cc2)c(OC)c(O)c1-c1ccc(O)c(O)c1 [Compound 6, 3-hydroxyterphyllin]	1.4 ± 0.01	5.7 μMole TE/μMole and 5.7 ± 0.3 μMole TE/μMole	10.9 ± 1.3	0.2
COc1cc(-c2ccc(O)c(O)c2)c(OC)c(O)c1-c1ccc(O)c(O)c1 [Compound 7, 3,3″-dihydroxyterphyllin]	1.1 ± 0.03	4.5 μMole TE/μMole and 4.5 ± 0.4 μMole TE/μMole	18.3 ± 0.9	0.5
COc1cc(-c2ccccc2)c(OC)c(O)c1-c1ccc(O)cc1 [Compound 8, 4″-deoxyterphenyllin]	57.8 ± 0.8	0.5 ± 0.01 μMole TE/μMole	130 ± 3.5	
COc1cc(-c2ccccc2)c(OC)c(O)c1-c1ccc(O)c(O)c1 [Compound 9, 4″-deoxy-3-hydroxyterphenyllin]	1.9 ± 0.04	0.5 ± 0.06 μMole TE/μMole	464 ± 23.6	
COc1cc(-c2ccc(O)cc2)c(OC)c(OC)c1-c1ccc(O)cc1 [Compound 10, 3′-O-methylterphenyllin]	> 100	0.5 ± 0.03 μMole TE/μMole	> 500	
COc1cc(-c2ccccc2)c(OC)c(O)c1-c1ccc(O)c(CC=C(C)C)c1 [Compound 11, 4″-deoxyprenylterphenyllin]	1.6 ± 0.01	1.2 ± 0.5 μMole TE/μMole	34.4 ± 1.1	
COc1cc(-c2ccc(O)c(CC=C(C)C)c2)c(OC)c(O)c1-c1ccc(O)c(O)c1 [Compound 12, prenylterphenyllin A]	1.6 ± 0.02	1.4 ± 0.01 μMole TE/μMole	64.4 ± 1.2	
COc1cc(-c2c(OC)cc(-c3ccc(O)cc3)c(OC)c2O)ccc1OCC=C(C)C [Compound 13, 3-methoxyterprenin]	> 100	0.4 ± 0.07 μMole TE/μMole	152 ± 9.6	
COc1c(-c2ccccc2)cc(OC)c2c1oc1cc(O)c(O)cc12 [Compound 14, 4″-deoxycandidusin A]	4 ± 0.2	0.4 ± 0.06 μMole TE/μMole	128 ± 2.3	
COc1c(-c2ccc(O)cc2)cc(OC)c2c1oc1cc(O)c(O)cc12 [Compound 15, candidusin A]	3.6 ± 0.06	2.1 ± 0.06 μMole TE/μMole	13.1 ± 0.2	20.5
COc1c(-c2ccc(O)c(O)c2)cc(OC)c2c1oc1cc(O)c(O)cc12 [Compound 16, candidusin B]	3.2 ± 0.1	2.0 ± 0.06 μMole TE/μMole	7.9 ± 0.3	2.7
Oc1ccc(-c2cc(O)c(-c3ccc(O)cc3)c(O)c2O)cc1 [Compound 17]	5.3 ± 0.06	4.8 μMole TE/μMole and 4.8 ± 0.3 μMole TE/μMole	25.1 ± 0.7	
Oc1ccc(-c2cc(O)c(-c3ccc(O)c(O)c3)c(O)c2O)cc1 [Compound 18]	3.7 ± 0.07	3.7 ± 0.1 μMole TE/μMole	25 ± 0.8	
Oc1ccc(-c2cc(O)c(-c3ccc(O)c(O)c3)c(O)c2O)cc1O [Compound 19]	1.8 ± 0.04	2.6 ± 0.1 μMole TE/μMole	19.4 ± 0.1	
O=C1C=C(c2ccc(O)cc2)C(=O)C(O)=C1c1ccc(O)cc1 [Compound 20]	5.9 ± 0.08	6.1 μMole TE/μMole and 6.1 ± 0.2 μMole TE/μMole	8.9 ± 0.4	0.4
O=C1C=C(c2ccc(O)cc2)C(=O)C(O)=C1c1ccc(O)c(O)c1 [Compound 21]	1.6 ± 0.04	3.9 ± 0.1 μMole TE/μMole	4 ± 0.08	1.2
O=C1C=C(c2ccc(O)c(O)c2)C(=O)C(O)=C1c1ccc(O)c(O)c1 [Compound 22]	1.7 ± 0.02	2.8 ± 0.3 μMole TE/μMole	10.1 ± 0.1	
COc1cc(-c2ccc(OC(C)=O)cc2)c(OC)c(OC(C)=O)c1-c1ccc(OC(C)=O)cc1 [Compound 23]	> 100	0.1 ± 0.01 μMole TE/μMole	> 500	
COc1cc(-c2ccc(OC(C)=O)cc2)c(OC)c(OC(C)=O)c1-c1ccc(OC(C)=O)c(OC(C)=O)c1 [Compound 24]	37.8 ± 0.1	0.8 ± 0.07 μMole TE/μMole	> 500	
COc1cc(-c2ccc(OC(C)=O)c(OC(C)=O)c2)c(OC)c(OC(C)=O)c1-c1ccc(OC(C)=O)c(OC(C)=O)c1 [Compound 25]	11 ± 0.1	1.7 ± 0.07 μMole TE/μMole	> 500	
O=C1O[C@H]([C@@H](O)CO)C(O)=C1O [VC, vitamin C, reference compound]	2.8 ± 0.03			
